Values of other authors as cited in US7632519B2, “TRPV1 agonist compounds, formulations, prodrugs, methods for using the same” (NeurogesX, Inc., priority 2005, dated 2009).

Conditions: oral dose levels of up to 2 mg/kg, humans

## COc1cc(CNC(=O)CCCC/C=C/C(C)C)ccc1O [capsaicin]
  adverse effects after oral dosing: without reported adverse effects
